Source: PMC12707362, “Targeting Aurora Kinases as Essential Cell‐Cycle Regulators to Deliver Multi‐Stage Antimalarials Against Plasmodium Falciparum” (Angewandte Chemie (International Ed. in English), 2025)
Where a name gives a salt, the structure may show the parent alone. Read-outs that look alike come from different tables or passages of the source. Values belong to the compound of their own block, whether it stands above or below them.

Columns and labels:
[1] = test system: P. falciparum drug-sensitive NF54 (PfNF54) asexual intra-erythrocytic parasites; experiment: SYBR Green I proliferation assay, PfNF54 asexual blood stages; type: cell-based, Plasmodium falciparum; conditions: read-out: Pf NF54 ABS IC50
Source text: Figure 1 Activity profile of Aur class anticancer inhibitors across the life cycle of Plasmodium falciparum parasites. a) Activity (IC50) of inhibitors (grouped based on specificity against human Aur) against P.falciparum drug‐sensitive (PfNF54) asexual intra‐erythrocytic parasites as measured with SYBR Green I fluorescence as an indicator of viability and proliferation. […] ABS, asexual blood stages of the parasite; HsAur, human Aur.
P. falciparum drug sensitive NF54 (PfNF54) and drug-resistant Dd2 (PfDd2, chloroquine, pyrimethamine and mefloquine resistant) strains were cultured in vitro in human O^+/A^+ erythrocytes (5% hematocrit) in complete medium at 2–5% parasitemia, 37 °C, shaking at 60 rpm under hypoxic conditions (90% N2, 5% O2 and 5% CO2). […] Gametocytogenesis was followed with daily media changes (including glucose) and ABS parasites removed with 50 mM N-acetylglucosamine (day 1–4 for stage II/III; days 3–7 for stage IV/V).
All inhibitors were dissolved in dimethyl sulfoxide (DMSO). […] Ring-stage ABS parasites (1% parasitemia, 1% hematocrit) were treated with compounds for 96 h at 37 °C with chloroquine disulphate (0.5 μM) as positive drug control. […] Luciferase activity was determined using a non-lysing D-luciferin substrate (1 mM in 0.1 M citrate buffer, pH 5.5, 100 μL) and bioluminescence was detected with a GloMax® - Multi Detection System with Instinct® software.

[2] = test system: P. berghei liver schizonts in HepG2-A16-CD81EGFP cells; experiment: P. berghei (PbLuc) liver stage assay; type: cell-based; conditions: Plasmodium berghei; 48 h, PbLuc; read-out: Pb liver stage IC50
Source text: (§1) (B) Antiplasmodial activity of nine anticancer aurora kinase inhibitors (selected based on their PfNF54 ABS activity) against P. falciparum multidrug-resistant ABS parasites (PfDd2 and PfK1). (C) Kinobead competitive inhibition data.
Plasmodium berghei (Pb) sporozoites were obtained by dissecting the salivary glands of infected Anopheles stephensi mosquitoes. These were provided by The SporoCore, at the University of Georgia, GA, USA (SporoCore.uga.edu). The parasites utilised a GFP-Lucama1-eef1 reporter line^[5]. These engineered parasites, termed Pb-Luc, were used to infect HepG2-A16-CD81EGFP cells. HepG2-A16-CD81EGFP cells stably transformed to express a GFP-CD81 fusion protein^[6] were cultured at 37 °C in 5% CO2 in DMEM (Invitrogen, Carlsbad, USA) supplemented with 10% FBS (Corning, NY, USA), 1X Pen/Strep/Glu (Thermo Fisher Scientific, USA). Compounds were prepared as 10 mM solutions in DMSO, and 10 nL of each (resulting in a final DMSO concentration of 0.1% per well) was transferred into assay plates using an ECHO 650 (Beckman). Concentrations ranged from 10 µM to 0.5 nM. Atovaquone (0.1 µM) served as a positive control, while 0.1% DMSO was used as a negative control. Liver stage (PbLuc) screening has been previously described^[7]. Human hepatic cells (3 × 10^3; HepG2-A16-CD81-EGFP) suspended in 5 µL of DMEM medium ([…], supplemented with 5% FBS, 5× Pen/Strep/Glu) were seeded in 1536-well plates (Greiner BioOne) using the MultiFlo FX (Agilent) 20 h before infection. PbLuc sporozoites, isolated from the salivary glands of A. stephensi mosquitoes, were filtered twice through a 20 µm nylon pore cell strainer. The sporozoites were resuspended in screening media, counted with a hemocytometer, and diluted to a final concentration of 200 sporozoites per µL. Each well received 1,000 sporozoites in 5 µL, dispensed via the GNF Dispenser II (GNF Systems). […] Luminescence was measured immediately with the Pherastar FSX reader (BMG Labtech). Luminescence values were normalized using the positive and negative controls. EC50 values were calculated with CDD Vault (Burlingame, CA). […]

[3] = test system: multidrug-resistant PfDd2 ABS parasites; experiment: SYBR Green I proliferation assay, PfDd2 asexual blood stages; type: cell-based; conditions: Plasmodium falciparum, DD2, read-out: Pf Dd2 ABS IC50
Method: as §1
(§2) P. falciparum drug sensitive NF54 (PfNF54) and drug-resistant Dd2 (PfDd2, chloroquine, pyrimethamine and mefloquine resistant) strains were cultured in vitro in human O^+/A^+ erythrocytes (5% hematocrit) in complete medium at 2–5% parasitemia, 37 °C, shaking at 60 rpm under hypoxic conditions (90% N2, 5% O2 and 5% CO2). Immature and mature gametocytes were produced from P. falciparum 3D7elo1-pfs16-CBG99 (kind gift from Pietro Alano, ISS, Italy) ^[1] as described^[2,3] by simultaneously applying nutrient starvation and decreasing hematocrit to induce >97% ring-stage ABS parasites (0.5% parasitemia, 6% hematocrit). Gametocytogenesis was followed with daily media changes (including glucose) and ABS parasites removed with 50 mM N-acetylglucosamine (day 1–4 for stage II/III; days 3–7 for stage IV/V).
(§3) All inhibitors were dissolved in dimethyl sulfoxide (DMSO). Antiplasmodium activity of selected anti-cancer inhibitors was determined on P. falciparum NF54 and Dd2 strains, measuring SYBR Green I fluorescence (485 nm excitation, 538 nm emission) as an indicator of proliferation^[4]. Ring-stage ABS parasites (1% parasitemia, 1% hematocrit) were treated with compounds for 96 h at 37 °C with chloroquine disulphate (0.5 μM) as positive drug control. The activity of the inhibitors was tested against immature (>95% stage II/III) and late-stage (>90% stage IV/V) gametocytes using a luciferase reporter assay on 3D7elo1-pfs16-CBG99 ^[1]. […] Luciferase activity was determined using a non-lysing D-luciferin substrate (1 mM in 0.1 M citrate buffer, pH 5.5, 100 μL) and bioluminescence was detected with a GloMax® - Multi Detection System with Instinct® software.

[4] = Cytotoxicity counter-screening (MTT), HepG2; conditions: human, HepG2 cells, HepG2 CC50, 48 h, MTT
Method: (§4) HepG2 and CHO cells were maintained at 37 °C, under a humidified atmosphere of 5% CO2, in DMEM high glucose media (Gibco) supplemented with 10% heat-inactivated FBS and 1% (v/v) Penicillin-Streptomycin antibiotics. […] The supernatant was discarded, and the cell pellet was resuspended in 1 mL DMEM media for cell counting by Trypan Blue. To determine the toxicity, cells were resuspended and seeded at a concentration of 1x10^4 cells/well in a 96-well plate and incubated for 24 h^[9,10]. Cells were treated in duplicate with a 10-fold serial dilution starting at 100 ug/mL of inhibitor in new media. After 48 h incubation, the viable cells were measured using the MTT tetrazolium reduction assay, where sterile 25 µL of a 5 mg/mL MTT was added to each well and incubated for 4 h before the […] formazan crystals were dissolved with 100 µL DMSO (Merck) per well. The absorbance, a measure of intracellular reduction of MTT, was measured at 540 nm (Multiskan GO). Emetine (50 µM) was included as a positive drug control, and the background was subtracted from all data before being normalised to the untreated^[9,10].

[5] = test system: hepatocellular carcinoma (HepG2) cells; experiment: Cytotoxicity counter-screening (MTT), HepG2; conditions: HepG2 CC50/PfNF54 IC50
Method: as §4

[6] = test system: late-stage (stage IV/V) gametocytes, P. falciparum 3D7elo1-pfs16-CBG99; experiment: Luciferase reporter assay, late-stage gametocytes; type: cell-based; conditions: Plasmodium falciparum, 48 h, read-out: Pf Late stage gametocyte %inhibition @ 5 µM
Method: as §2, §3

[7] = test system: Chinese Hamster Ovary (CHO) cells; experiment: Cytotoxicity counter-screening (MTT), CHO; conditions: CHO CC50/PfNF54 IC50
Method: as §4

[8] = Cytotoxicity counter-screening (MTT), CHO; conditions: Chinese hamster, CHO cells
Method: as §4

[9] = test system: immature (stage II/III) gametocytes, P. falciparum 3D7elo1-pfs16-CBG99; experiment: Luciferase reporter assay, immature gametocytes; type: cell-based, Plasmodium falciparum; conditions: 48 h; for inhibition at 5 µM: Plasmodium falciparum, read-out: Pf Early stage gametocyte %inhibition @ 5 µM
Method: as §2, §3

[10] = test system: HepG2 and CHO cell lines versus PfNF54; experiment: Selectivity of parasite versus mammalian cell lines; type: cell-based; conditions: mammalian cell line (CHO/HepG2) CC50 versus PfNF54 IC50; cell line not specified
[11] = Plasmodium falciparum, NF54, 96 h, ring-stage ABS, 96 h, SYBR Green I
[12] = ring-stage ABS, 96 h, SYBR Green I

- IC50 [1, 11]: 3.24 µM
Compound: Cc1nn(C)cc1-c1nc2c(N3CCN(Cc4ccc(Cl)cc4)CC3)c(Cl)cnc2[nH]1 [CCT-736, CCT-241736]

- IC50 [1, 11]: 3.09 µM
Compound: Cc1nc(N)sc1-c1ccnc(Nc2ccc(N3CCOCC3)cc2)n1 [CYC-116]

- IC50 [1, 11]: 3.31 ± 0.813 µM
Compound: Nc1nc(Nc2ccc(S(N)(=O)=O)cc2)nn1C(=O)c1c(F)cccc1F [JNJ, JNJ-7706621]

- IC50 [1, 11]: ≥ 5 µM
Compound: O=C(O)c1ccc(Nc2ncc3c(n2)-c2ccc(Cl)cc2C(c2c(F)cccc2F)=NC3)cc1 [MLN8054]

- IC50 [1, 12]: 2.12 ± 1.56 µM
Compound: CC(=O)NCC(=O)N1[C@@H]2CC[C@H]1c1ccc(Nc3ncc(C(F)(F)F)c(NC4CCC4)n3)cc12 [PF-35, PF-03814735]

- IC50 [1, 11]: 3.13 µM
Compound: CCc1cccc(CC)c1NC(=O)N1Cc2n[nH]c(NC(=O)c3ccc(N4CCN(C)CC4)cc3)c2C1 [PHA-32, PHA-680632]

- IC50 [1, 11]: 1.44 µM
Compound: O=C(Nc1cccc(Cl)c1)Nc1ncc(CCNc2ncnc3ccsc23)s1 [SNS-314, SNS-314 Mesylate]

More lines, now with the values behind:

Compound: Cc1csc(-c2nnc(Nc3ccc(Oc4ncccc4-c4ccnc(N)n4)cc3)c3ccccc23)c1 [AMG 900]
- IC50 [1, 11]: ≥ 5 µM

Compound: COc1cc2ncnc(Nc3ccc(NC(=O)c4ccccc4)cc3)c2cc1OC [Aki II, Aurora Kinase Inhibitor II]
- IC50 [1, 12]: 2.15 µM

Compound: COc1cc(Nc2ncc3c(n2)-c2ccc(Cl)cc2C(c2c(F)cccc2OC)=NC3)ccc1C(=O)O [Alisertib, Alisertib (MLN8237)]
- IC50 [1, 11]: ≥ 5 µM

Compound: CN(C)c1ccc(-c2nc3ncc(Cl)c(N4CCN(CC(=O)Nc5nccs5)CC4)c3[nH]2)cc1 [CCT-202, CCT-129202]
- IC50 [1, 12]: 2.41 µM

Compound: Cc1cc(CN2CCN(c3c(Br)cnc4nc(-c5ccc(N6CCN(C)CC6)cc5)[nH]c34)CC2)no1 [CCT-690, CCT-137690]
- IC50 [1, 12]: 1.66 µM

Compound: CO[C@@H](C(=O)N1Cc2n[nH]c(NC(=O)c3ccc(N4CCN(C)CC4)cc3)c2C1)c1ccccc1 [Danusertib]
- IC50 [2]: 6.22 µM
- IC50 [3]: 1.3 µM
- IC50 [1, 11]: 1.41 µM
- CC50 at 48 h [4]: 35.1 µM
- Selectivity index (SI) HepG2 [5]: 24.8
- inhibition at 5 µM [6]: 2.6%
- Selectivity index (SI) CHO [7]: 23.50
- CC50 at 48 h [8]: 33.2 µM
- inhibition at 5 µM [9]: 9.5%

Compound: CCn1cc(-c2ccnc3[nH]c(-c4cccc(CN(C)C)c4)cc23)c(-c2ccc(NC(=O)N(C)C)cc2)n1 [GSK-916, GSK-1070916]
- IC50 [3]: 0.404 µM
- IC50 [1, 11]: 1.18 µM
- CC50 at 48 h [4]: 13.1 µM
- Selectivity index (SI) HepG2 [5]: 11.03
- inhibition at 5 µM [6]: 31.5%
- Selectivity index (SI) CHO [7]: 4.47
- CC50 at 48 h [8]: 5.3 µM
- Pf Early stage gametocyte %inhibition @ 5 µM [9]: 67,1 ± 7,0%
- inhibition at 5 µM [9]: ~70%
- selectivity index (SI) towards the parasite [10]: < 10

Compound: O=C(O)[C@]1(Cc2cccc(Nc3nccs3)n2)CC[C@@H](Oc2cccc(Cl)c2F)CC1 [MK-5108]
- IC50 ([1]; Plasmodium falciparum, NF54, 96 h): ≥ 5 µM

Compound: Cc1cc(Nc2nn(-c3ccccc3)c(=O)c3ccccc23)n[nH]1 [PH-p, Phthalazinone pyrazole]
- IC50 [1, 12]: 2.72 µM
